This note sets out measurements from ChEMBL document CHEMBL4052736, “Synthesis, antioxidant, antifungal, molecular docking and ADMET studies of some thiazolyl hydrazones” (Bioorg Med Chem Lett, 2017).

Converted amounts (≈) assume the structure as drawn.

Holding throughout (assay type): functional
Experiment [1] is described as follows: Antioxidant activity assessed as DPPH free radical scavenging activity at 20 ug/ml after 15 mins by spectrophotometric method. (DPPH is a stable violet radical that fades when it is reduced.)
A short description of experiment [2]: Antioxidant activity assessed as DPPH free radical scavenging activity at 40 ug/ml after 15 mins by spectrophotometric method.
Experiment [3] is described as follows: Antioxidant activity assessed as DPPH free radical scavenging activity at 60 ug/ml after 15 mins by spectrophotometric method.
Experiment [4] can be described thus: Antioxidant activity assessed as DPPH free radical scavenging activity at 80 ug/ml after 15 mins by spectrophotometric method.
The nature of experiment [5]: Antioxidant activity assessed as DPPH free radical scavenging activity at 100 ug/ml after 15 mins by spectrophotometric method.
A short description of experiment [6]: Antioxidant activity assessed as DPPH free radical scavenging activity measured after 15 mins by spectrophotometric method.
Experiment [7] in a line: Antioxidant activity assessed as H2O2 free radical scavenging activity at 20 ug/ml after 10 to 15 mins by spectrophotometric analysis.
Experiment [8] can be described thus: Antioxidant activity assessed as H2O2 free radical scavenging activity at 40 ug/ml after 10 to 15 mins by spectrophotometric analysis.
A short description of experiment [9]: Antioxidant activity assessed as H2O2 free radical scavenging activity at 60 ug/ml after 10 to 15 mins by spectrophotometric analysis.
Experiment [10] in a line: Antioxidant activity assessed as H2O2 free radical scavenging activity at 80 ug/ml after 10 to 15 mins by spectrophotometric analysis.
Experiment [11] can be described thus: Antioxidant activity assessed as H2O2 free radical scavenging activity at 100 ug/ml after 10 to 15 mins by spectrophotometric analysis.
Experiment [12] is described as follows: Antioxidant activity assessed as H2O2 free radical scavenging activity by spectrophotometric analysis.
Experiment [13] has as its system Aspergillus flavus. Nature of the experiment: Antifungal activity against Aspergillus flavus after 24 hrs by well diffusion method.
Experiment [14] deals with Candida albicans. Nature of the experiment: Antifungal activity against Candida albicans after 24 hrs by well diffusion method. In general terms: A growth-free zone around the sample is the usual read-out of agar diffusion tests.
The subject of experiment [15] is Aspergillus flavus. In words: Antifungal activity against Aspergillus flavus assessed as zone of inhibition at 25 ug/ml measured after 24 hrs by well diffusion method. The note with it: read-out: IZ.
Experiment [16] deals with Aspergillus flavus. In words: Antifungal activity against Aspergillus flavus assessed as zone of inhibition at 50 ug/ml measured after 24 hrs by well diffusion method. The note with it: read-out: IZ.
The subject of experiment [17] is Aspergillus niger. In words: Antifungal activity against Aspergillus niger assessed as zone of inhibition at 25 ug/ml measured after 24 hrs by well diffusion method. The note with it: read-out: IZ.
For experiment [18], the system named is Aspergillus niger. In words: Antifungal activity against Aspergillus niger assessed as zone of inhibition at 50 ug/ml measured after 24 hrs by well diffusion method. The settings on record: read-out: IZ.
For experiment [19], the system named is Aspergillus niger. Nature of the experiment: Antifungal activity against Aspergillus niger assessed as zone of inhibition at 100 ug/ml measured after 24 hrs by well diffusion method. The note with it: read-out: IZ.
In experiment [20] the test system is Candida albicans. Nature of the experiment: Antifungal activity against Candida albicans assessed as zone of inhibition at 100 ug/ml measured after 24 hrs by well diffusion method. The settings on record: read-out: IZ.
Experiment [21] concerns Candida albicans. Nature of the experiment: Antifungal activity against Candida albicans assessed as zone of inhibition at 50 ug/ml measured after 24 hrs by well diffusion method. The settings on record: read-out: IZ.
Experiment [22] relates to Candida albicans. In words: Antifungal activity against Candida albicans assessed as zone of inhibition at 25 ug/ml measured after 24 hrs by well diffusion method. The settings on record: read-out: IZ.
Experiment [23] concerns Aspergillus flavus. Nature of the experiment: Antifungal activity against Aspergillus flavus assessed as zone of inhibition at 100 ug/ml measured after 24 hrs by well diffusion method. The note with it: read-out: IZ.

As to `O=C1O[C@H]([C@@H](O)CO)C(O)=C1O` [ASCORBIC ACID], the inhibition in experiment [1] turned out to be 93.4%; in experiment [2], 94.6%; in experiment [3], 95.5%; in experiment [4] it was 96%; in [5], 97%; in experiment [7], 93.4%. Moreover, the inhibition in experiment [8] was found to be 94.6%; in [9] it was 95.5%; in experiment [10], 96%; in experiment [11], 97%. Besides, the IC50 in [6] and in [12] was 26.771 µg/mL (≈ 152 µM) throughout.

As for `Clc1ccc(-c2csc(N/N=C/c3cccs3)n2)cc1`, the MIC in [13] is 12.5 µg/mL (≈ 39.1 µM); in experiment [14] it was 6.25 µg/mL (≈ 19.5 µM). Further, the zone of inhibition at 25 µg/mL in [15] worked out at 8 mm; in experiment [17] it was 6 mm; in experiment [22] it was 11 mm. The zone of inhibition at 50 µg/mL in experiment [16] is 17 mm; in experiment [18] it was 6 mm; in experiment [21], 14 mm. The inhibition is 94.4% in experiment [1]; 96% in experiment [2]; 96.1% in experiment [3]; 96.6% in experiment [4]; 97% in experiment [5]; 82.8% in [7]. Also, the inhibition came out at 83.2% in experiment [8], 85.2% in [9], 86% in experiment [10] and 87.1% in experiment [11]. The half-maximal inhibitory concentration (IC50) in [6] was 26.335 µg/mL (≈ 82.3 µM); in experiment [12], 39.58 µg/mL (≈ 124 µM). The zone of inhibition at 100 µg/mL in [19] stood at 8 mm; in [20] it was 18 mm; in experiment [23] it was 20 mm.

`COC(=O)c1cc(-c2csc(N/N=C/c3ccc(Cl)cc3Cl)n2)ccc1OCc1ccccc1` showed a minimal inhibitory concentration (MIC) in experiment [14] of 6.25 µg/mL (≈ 12.2 µM). Besides, the zone of inhibition at 25 µg/mL in experiment [15] was determined as 6 mm; in experiment [17] it was 6 mm; in experiment [22] it was 12 mm. Also, the zone of inhibition at 50 µg/mL is 6 mm in [16], 6 mm in experiment [18] and 10 mm in experiment [21]. Moreover, the inhibition in experiment [1] stood at 19.2%; in experiment [2], 37.2%; in [3] it was 41.9%; in [4] it was 45.5%; in experiment [5] it was 56.1%; in experiment [7], 58.9%. In addition, the inhibition in experiment [8] was found to be 63.5%; in [9], 66.3%; in experiment [10], 71.8%; in [11], 75%. Besides, the IC50 in [6] turned out to be 88.844 µg/mL (≈ 173 µM); in experiment [12], 57.873 µg/mL (≈ 113 µM). Besides, the values for the zone of inhibition at 100 µg/mL in experiment [19], in experiment [20] and in [23] were 6 mm, 13 mm and 14 mm, respectively.

Regarding `COC(=O)c1cc(-c2csc(N/N=C/c3cccs3)n2)ccc1OCc1ccccc1`, 25 µg/mL (≈ 55.6 µM) was the least that counted as inhibitory in experiment [14] (MIC). Also, the zone of inhibition at 25 µg/mL in experiment [15], in experiment [17] and in experiment [22] was 6 mm each time. For the same molecule, the zone of inhibition at 50 µg/mL in [16] turned out to be 6 mm; in experiment [18] it was 6 mm; in experiment [21] it was 8 mm. The inhibition in [1] was 94.3%; in experiment [2], 94.9%; in experiment [3], 95.5%; in experiment [4], 96%; in experiment [5] it was 96.3%; in [7] it was 79.6%. In addition, the inhibition in [8] worked out at 82.8%; in experiment [9], 84.4%; in experiment [10], 87.6%; in [11], 92.4%. Besides, the half-inhibitory concentration (IC50) in experiment [6] turned out to be 28.131 µg/mL (≈ 62.6 µM); in experiment [12], 29.212 µg/mL (≈ 65 µM). The zone of inhibition at 100 µg/mL in experiment [19] turned out to be 6 mm; in [20] it was 10 mm; in [23], 6 mm.

In experiment [14], `Cc1ccc(-c2csc(N/N=C/c3cccs3)n2)cc1` showed a minimal inhibitory concentration (MIC) of 6.25 µg/mL (≈ 20.9 µM). Further, the zone of inhibition at 25 µg/mL is 6 mm in [15], 6 mm in [17] and 13 mm in [22]. In addition, the zone of inhibition at 50 µg/mL in experiment [16] was determined as 6 mm; in experiment [18], 6 mm; in experiment [21], 14 mm. The inhibition came out at 90.9% in experiment [1]; 97% in experiment [2]; 97.6% in [3]; 97.8% in [4]; 98.1% in [5]; 79.6% in [7]. The inhibition came out at 82.8% in [8], 84.4% in experiment [9], 88.4% in experiment [10] and 91% in experiment [11]. Also, the IC50 in experiment [6] worked out at 29.837 µg/mL (≈ 99.6 µM); in [12] it was 35.933 µg/mL (≈ 120 µM). Besides, the zone of inhibition at 100 µg/mL was 6 mm in experiment [19], 15 mm in experiment [20] and 6 mm in [23].

Take `Cc1ccc(-c2csc(N/N=C/c3ccc(Cl)cc3Cl)n2)cc1`: the MIC in experiment [13] and in [14] was 25 µg/mL (≈ 69 µM) throughout. The zone of inhibition at 25 µg/mL in experiment [15], in experiment [17] and in [22] was 6 mm in each case. Further, the zone of inhibition at 50 µg/mL came to 10 mm in experiment [16], 6 mm in experiment [18] and 6 mm in [21]. The inhibition in [1] is 86%; in experiment [2], 86.2%; in [3], 93.3%; in experiment [4], 90.7%; in experiment [5] it was 95.1%; in experiment [7], 76.2%. Besides, the inhibition in experiment [8] was determined as 80.4%; in [9], 83.2%; in experiment [10], 84.2%; in experiment [11], 85.3%. For the same molecule, the IC50 turned out to be 30.791 µg/mL (≈ 85 µM) in [6] and 40.004 µg/mL (≈ 110 µM) in [12]. For the same molecule, the zone of inhibition at 100 µg/mL in [19] is 6 mm; in experiment [20] it was 8 mm; in [23], 16 mm.

For the molecule `O=C(O)Cc1ccccc1Nc1c(Cl)cccc1Cl`, the inhibition in experiment [1] was determined as 97.1%.

Turning to `Fc1ccc(-c2csc(N/N=C/c3ccc(Cl)cc3Cl)n2)cc1`, the minimum inhibitory concentration (MIC) in [13] is 12.5 µg/mL (≈ 34.1 µM); in experiment [14], 6.25 µg/mL (≈ 17.1 µM). Moreover, the results for the zone of inhibition at 25 µg/mL in [15], in experiment [17] and in [22] were 8 mm, 6 mm and 10 mm, respectively. Moreover, the zone of inhibition at 50 µg/mL in [16] is 10 mm; in [18] it was 6 mm; in experiment [21], 11 mm. For the same molecule, the inhibition in experiment [1] worked out at 90.7%; in experiment [2], 93.3%; in experiment [3], 94.6%; in experiment [4], 95.5%; in experiment [5], 96%; in [7], 88.4%. For the same molecule, the inhibition stood at 90% in experiment [8], 92.4% in [9], 94% in [10] and 95.6% in experiment [11]. The values for the 50% inhibitory concentration (IC50) in experiment [6] and in experiment [12] were 27.139 µg/mL (≈ 74.1 µM) and 35.539 µg/mL (≈ 97 µM), respectively. Besides, the values for the zone of inhibition at 100 µg/mL in experiment [19], in experiment [20] and in experiment [23] were 6 mm, 13 mm and 12 mm, respectively.

For `COc1ccc(-c2csc(N/N=C/c3ccc(Cl)cc3Cl)n2)cc1`, 25 µg/mL (≈ 66.1 µM) was the least that counted as inhibitory in experiment [14] (MIC). The zone of inhibition at 25 µg/mL in [15], in experiment [17] and in [22] was 6 mm in each case. Further, the zone of inhibition at 50 µg/mL in experiment [16], in [18] and in experiment [21] was 6 mm throughout. Besides, the inhibition came to 65.5% in [1]; 69.5% in [2]; 86.9% in [3]; 90.6% in [4]; 93.3% in experiment [5]; 78.1% in experiment [7]. Also, the inhibition in [8] worked out at 79.7%; in [9], 82.8%; in experiment [10], 84.2%; in experiment [11], 87.5%. Moreover, the concentration for half-maximal inhibition (IC50) in experiment [6] turned out to be 34.966 µg/mL (≈ 92.4 µM); in experiment [12], 40.405 µg/mL (≈ 107 µM). Besides, the zone of inhibition at 100 µg/mL is 6 mm in experiment [19], 7 mm in [20] and 6 mm in experiment [23].

As usually defined, the inhibition is the share of the control response that was lost under treatment. As a reminder, the IC50 is the midpoint of a concentration-inhibition curve. Usually MIC stands for the lowest concentration found to suppress growth. The low end stands for inhibition by little substance, the high end for a need for much substance.
